Assay results as given in patent US11716994B2, “Combinations of Yersinia entomophaga and pesticides or other substances” (priority 2017, dated 2023).
Several values for one entry are separate records, joined by “and”; a condition that tells them apart may be missing. Equal entries are not always repeated. Where two headings read alike, the source gives them in different places.

Columns and labels:
fall armyworm = assay: Leaf disk mortality assay, Y. entomophaga cells with chemical insecticides; conditions: for LT50 (95% confidence intervals) / LT50 (95% confidence intervals) in days: 3rd instar; for LT50 Chem. / % Mort. Chem.: fall armyworm; for mortality at 19 µg/mL / mortality at 60 µg/mL / mortality at 300 µg/mL: Spodoptera frugiperda, foliar
diamondback moth = assay: whole plant or invertebrate; conditions: for LT50 (95% confidence intervals) / LT50 (95% confidence intervals) in days: 2nd instar diamondback moth; for LT50 Chem. / % Mort. Chem.: Diamondback moth; for LT50 (95% confidence intervals) in days: Probit analysis
Text: (§1) These were set to dry for 1 hr.
as §1
These were set to dry for 1 hr. Cabbage disks were then dipped in either 1% Luria broth (LB) media solution (controls and thiacloprid alone treatments) or in 1% cell free filtrate from a culture Y. entomophaga isolate O24G3R (Y. entomophaga alone or in combination with thiacloprid treatments).

cabbage looper [1] = conditions: Cabbage Looper, clothianidin 60 mg/L
black cutworm = assay: Leaf disk mortality assay, Y. entomophaga cells with chemical insecticides; conditions: for LT50 Chem.: black cutworm
cabbage looper [2] = test system: cabbage looper
Colorado potato beetle = assay: Tomato leaf disk mortality assay, Y. entomophaga cells with chemical insecticides; conditions: for mortality at 120 µg/mL: Leptinotarsa decemlineata, in Solanum lycopersicum, foliar

SMILES: CC1(C)[C@H](C(=O)O[C@H](C#N)c2cccc(Oc3ccccc3)c2)[C@@H]1/C=C(\Cl)C(F)(F)F (racemic) [λ-cyhalothrin]
- LT50 (95% confidence intervals) (fall armyworm; λ-cyhalothrin […], isolate O43NEW 1×10^5 cfu/mL): 5.20 days
- LT50 Chem. (fall armyworm; λ-cyhalothrin alone […]): 5.20 days

SMILES: CCOP(=S)(OCC)Oc1nc(Cl)c(Cl)cc1Cl [Chlorpyrifos]
- LT50 (95% confidence intervals) (diamondback moth; chlorpyrifos 3.8 mg/L, O43NEW filtrate 1%, alone or combined): 3.72 days
- LT50 Chem. (diamondback moth; chlorpyrifos 3.8 mg/L): 3.72 days
- % Mort. Chem. (diamondback moth; chlorpyrifos 3.8 mg/L, 4 DAT): 74%
- mortality at 3.8 µg/mL (diamondback moth; Plutella xylostella, foliar, 96 h, read-out: % Mortality (4DAT), 2nd instar diamondback moth, chlorpyrifos 3.8 mg/L, O43NEW filtrate 1%, alone or combined, 4 DAT, Abbott's corrected): 74%
- LT50 (95% confidence intervals) in days (fall armyworm; chlorpyrifos 19 mg/L, isolate O24G3R 1×10^5 cfu/mL): 8.02 (7.22-8.91) days
- LT50 (95% confidence intervals) in days (fall armyworm; chlorpyrifos 19 mg/L, isolate O24KEK 1×10^5 cfu/mL): 8.02 (7.22-8.91) days
- LT50 (95% confidence intervals) in days (fall armyworm; chlorpyrifos 19 mg/L, isolate O43NEW 1×10^5 cfu/mL): 6.83 (6.09-7.66) days
- LT50 (95% confidence intervals) (fall armyworm; chlorpyrifos 19 mg/L, isolate O333A4 1×10^5 cfu/mL): 8.02 days
- mortality at 19 µg/mL (fall armyworm; 72 h, read-out: % Mortality (3DAT), 3rd instar, chlorpyrifos 19 mg/L, isolate O43NEW 1×10^5 cfu/mL): 40%
- mortality at 19 µg/mL (fall armyworm; 96 h, read-out: % Mortality (4DAT), 3rd instar, chlorpyrifos 19 mg/L, isolate O43NEW 1×10^5 cfu/mL): 45%
- mortality at 19 µg/mL (fall armyworm; 96 h, read-out: % Mortality (4DAT), 3rd instar, chlorpyrifos 19 mg/L, isolate O333A4 1×10^5 cfu/mL): 35%
- mortality at 19 µg/mL (fall armyworm; 120 h, read-out: % Mortality (5DAT), 3rd instar, chlorpyrifos 19 mg/L, isolate O24G3R 1×10^5 cfu/mL): 35%
- mortality at 19 µg/mL (fall armyworm; 120 h, read-out: % Mortality (5DAT), 3rd instar, chlorpyrifos 19 mg/L, isolate O333A4 1×10^5 cfu/mL): 35%
- mortality at 19 µg/mL (fall armyworm; 144 h, read-out: % Mortality (6DAT), 3rd instar, chlorpyrifos 19 mg/L, isolate O24G3R 1×10^5 cfu/mL): 35%
- mortality at 19 µg/mL (fall armyworm; 144 h, read-out: % Mortality (6DAT), 3rd instar, chlorpyrifos 19 mg/L, isolate O24KEK 1×10^5 cfu/mL): 35%
- mortality at 19 µg/mL (fall armyworm; 144 h, read-out: % Mortality (6DAT), 3rd instar, chlorpyrifos 19 mg/L, isolate O333A4 1×10^5 cfu/mL): 35%
- mortality at 19 µg/mL (fall armyworm; 168 h, read-out: % Mortality (7DAT), 3rd instar, chlorpyrifos 19 mg/L, isolate O24G3R 1×10^5 cfu/mL): 40%
- mortality at 19 µg/mL (fall armyworm; 168 h, read-out: % Mortality (7DAT), 3rd instar, chlorpyrifos 19 mg/L, isolate O24KEK 1×10^5 cfu/mL): 40%
- mortality at 19 µg/mL (fall armyworm; 168 h, read-out: % Mortality (7DAT), 3rd instar, chlorpyrifos 19 mg/L, isolate O333A4 1×10^5 cfu/mL): 40%
- % Mort. Chem. (fall armyworm; Chlorpyrifos 19 mg/L, 3 DAT): 40%
- % Mort. Chem. (fall armyworm; Chlorpyrifos 19 mg/L, 5 DAT): 35%
- % Mort. Chem. (fall armyworm; Chlorpyrifos 19 mg/L, 6 DAT (row with O24KEK)): 35%
- % Mort. Chem. (fall armyworm; Chlorpyrifos 19 mg/L, 6 DAT (row with O333A4)): 35%
- LT50 Chem. (fall armyworm; Chlorpyrifos alone 19 mg/L): 6.83 days and 8.02 days

SMILES: CN/C(=N\[N+](=O)[O-])NCc1cnc(Cl)s1 [Clothianidin]
- LT50 Chem. (cabbage looper [1]): 9.07 days
- % Mort. Chem. (cabbage looper [1]; 5 DAT): 30%
- LT50 (95% confidence intervals) (diamondback moth; clothianidin 60 mg/L, O43NEW filtrate 1%, alone or combined): 6.120 days
- LT50 Chem. (diamondback moth; clothianidin 60 mg/L): 6.12 days
- % Mort. Chem. (diamondback moth; clothianidin 60 mg/L, 4 DAT): 47%
- mortality at 60 µg/mL (diamondback moth; Plutella xylostella, foliar, 96 h, read-out: % Mortality (4DAT), 2nd instar diamondback moth, clothianidin 60 mg/L, O43NEW filtrate 1%, alone or combined, 4 DAT, Abbott's corrected): 47%
- mortality at 60 µg/mL (diamondback moth; Plutella xylostella, foliar, 120 h, read-out: % Mortality (5DAT), 2nd instar diamondback moth, clothianidin 60 mg/L, O43NEW filtrate 1%, alone or combined, 5 DAT, Abbott's corrected): 53%
- LT50 (95% confidence intervals) in days (fall armyworm; clothianidin 60 mg/L, isolate O24G3R 1×10^5 cfu/mL): 9.38 (8.57-10.27) days
- LT50 (95% confidence intervals) in days (fall armyworm; clothianidin 60 mg/L, isolate O43NEW 1×10^5 cfu/mL): 10.94 (9.97-12.03) days
- LT50 (95% confidence intervals) in days (fall armyworm; clothianidin 60 mg/L, isolate O333A4 1×10^5 cfu/mL): 22.94 (19.21-27.62) days
- mortality at 60 µg/mL (fall armyworm; 96 h, read-out: % Mortality (4DAT), 3rd instar, clothianidin 60 mg/L, isolate O333A4 1×10^5 cfu/mL): 0%
- mortality at 60 µg/mL (fall armyworm; 120 h, read-out: % Mortality (5DAT), 3rd instar, clothianidin 60 mg/L, isolate O24G3R 1×10^5 cfu/mL): 5%
- mortality at 60 µg/mL (fall armyworm; 120 h, read-out: % Mortality (5DAT), 3rd instar, clothianidin 60 mg/L, isolate O333A4 1×10^5 cfu/mL): 0%
- mortality at 60 µg/mL (fall armyworm; 144 h, read-out: % Mortality (6DAT), 3rd instar, clothianidin 60 mg/L, isolate O24G3R 1×10^5 cfu/mL): 11%
- mortality at 60 µg/mL (fall armyworm; 168 h, read-out: % Mortality (7DAT), 3rd instar, clothianidin 60 mg/L, isolate O43NEW 1×10^5 cfu/mL): 0%
- mortality at 60 µg/mL (fall armyworm; 168 h, read-out: % Mortality (7DAT), 3rd instar, clothianidin 60 mg/L, isolate O333A4 1×10^5 cfu/mL): 5%
- mortality at 60 µg/mL (fall armyworm; 240 h, read-out: % Mortality (10DAT), 3rd instar, clothianidin 60 mg/L, isolate O43NEW 1×10^5 cfu/mL): 0%
- mortality at 60 µg/mL (fall armyworm; 312 h, read-out: % Mortality (13DAT), 3rd instar, clothianidin 60 mg/L, isolate O43NEW 1×10^5 cfu/mL): 11%
- % Mort. Chem. (fall armyworm; Clothianidin 60 mg/L, 5 DAT): 5%
- % Mort. Chem. (fall armyworm; Clothianidin 60 mg/L, 7 DAT): 5%
- % Mort. Chem. (fall armyworm; Clothianidin 60 mg/L, 10 DAT): 0%

SMILES: CC1(C)C(C=C(Cl)Cl)C1C(=O)OC(C#N)c1ccc(F)c(Oc2ccccc2)c1 (stereo not drawn) [Cyfluthrin]
- LT50 (95% confidence intervals) (black cutworm; 3rd instar, cyfluthrin […], isolate O43NEW 1×10^4 cfu/mL): 8.82 days
- LT50 Chem. (black cutworm; Cyfluthrin alone […]): 8.82 days
- LT50 Chem. (cabbage looper [2]; cabbage looper, Cyfluthrin alone […]): 7.33 days
- % Mortality (4DAT) (cabbage looper [2]; in vivo): 30%
- % Mortality (5DAT) (cabbage looper [2]; in vivo): 50%
- LT75 (95% confidence intervals) (cabbage looper [2]; in vivo): 7.326 days

SMILES: CC[S+]([O-])c1c(C#N)nn(-c2c(Cl)cc(C(F)(F)F)cc2Cl)c1N (stereo not drawn) [Ethiprole]
- LT50 (95% confidence intervals) (Colorado potato beetle; 4th instar larva, ethiprole 120 mg/L, isolate O43NEW 1×10^7 cfu/mL): 8.90 days
- % Mort. Chem. (Colorado potato beetle; Colorado potato beetle, Ethiprole 120 mg/L, 5 DAT): 21%
- LT50 Chem. (Colorado potato beetle; Colorado potato beetle, Ethiprole alone 120 mg/L): 8.90 days
- mortality at 120 µg/mL (Colorado potato beetle; 72 h, read-out: % Mortality (3DAT)): 21%
- mortality at 120 µg/mL (Colorado potato beetle; 96 h, read-out: % Mortality (4DAT)): 21%
- mortality at 120 µg/mL (Colorado potato beetle; 120 h, read-out: % Mortality (5DAT)): 21%
- mortality at 120 µg/mL (Colorado potato beetle; 144 h, read-out: % Mortality (6DAT)): 37%

SMILES: Cc1cc(C(F)(C(F)(F)F)C(F)(F)F)ccc1NC(=O)c1cccc(I)c1C(=O)NC(C)(C)CS(C)(=O)=O [Flubendiami-de]
- LT50 Chem. (black cutworm; Flubendiami-de alone 0.2 mg/L): 4.83 days
- LT50 Chem. (black cutworm; Flubendiami-de alone 0.59 mg/L): 4.99 days

SMILES: CCOC(=O)OC1=C(c2cc(C)ccc2C)C(=O)N[C@]12CC[C@@H](OC)CC2 [Spirotetramat]
- LT50 (95% confidence intervals) in days (diamondback moth; spirotetramat 30 mg/L, 1% O24G3R filtrate): 23.41 (19.1-28.86) days
- LT50 (95% confidence intervals) in days (diamondback moth; spirotetramat 30 mg/L, 1% O43NEW filtrate): 21.02 (16.86-26.76) days
- % Mort. Chem. (diamondback moth; spirotetramat 30 mg/L, 6 DAT, O43NEW experiment): 11%
- % Mort. Chem. (diamondback moth; spirotetramat 30 mg/L, 10 DAT, O24G3R experiment): 0%
- LT50 Chem. (diamondback moth; spirotetramat 30 mg/L, O24G3R experiment): 23.41 days
- LT50 Chem. (diamondback moth; spirotetramat 30 mg/L, O43NEW experiment): 21.02 days
- mortality at 30 µg/mL (diamondback moth; Plutella xylostella, foliar, 96 h, read-out: % Mortality (4DAT), diamondback moth, spirotetramat 30 mg/L, 1% O43NEW filtrate, 4 DAT, Abbott's corrected): 5%
- mortality at 30 µg/mL (diamondback moth; Plutella xylostella, foliar, 120 h, read-out: % Mortality (5DAT), diamondback moth, spirotetramat 30 mg/L, 1% O43NEW filtrate, 5 DAT, Abbott's corrected): 5%
- mortality at 30 µg/mL (diamondback moth; Plutella xylostella, foliar, 144 h, read-out: % Mortality (6DAT), diamondback moth, spirotetramat 30 mg/L, 1% O24G3R filtrate, 6 DAT, Abbott's corrected): 0%
- mortality at 30 µg/mL (diamondback moth; Plutella xylostella, foliar, 144 h, read-out: % Mortality (6DAT), diamondback moth, spirotetramat 30 mg/L, 1% O43NEW filtrate, 6 DAT, Abbott's corrected): 11%
- mortality at 30 µg/mL (diamondback moth; Plutella xylostella, foliar, 168 h, read-out: % Mortality (7DAT), diamondback moth, spirotetramat 30 mg/L, 1% O43NEW filtrate, 7 DAT, Abbott's corrected): 16%
- mortality at 30 µg/mL (diamondback moth; Plutella xylostella, foliar, 240 h, read-out: % Mortality (10DAT), diamondback moth, spirotetramat 30 mg/L, 1% O24G3R filtrate, 10 DAT, Abbott's corrected): 0%
- mortality at 30 µg/mL (diamondback moth; Plutella xylostella, foliar, 264 h, read-out: % Mortality (11DAT), diamondback moth, spirotetramat 30 mg/L, 1% O24G3R filtrate, 11 DAT, Abbott's corrected): 0%
- mortality at 30 µg/mL (diamondback moth; Plutella xylostella, foliar, 336 h, read-out: % Mortality (14DAT), diamondback moth, spirotetramat 30 mg/L, 1% O24G3R filtrate, 14 DAT, Abbott's corrected): 0%
- LT50 (95% confidence intervals) in days (fall armyworm; spirotetramat 300 mg/L, isolate O43NEW 1×10^5 cfu/mL): 10.29 (9.39-11.29) days
- mortality at 300 µg/mL (fall armyworm; 144 h, read-out: % Mortality (6DAT), 3rd instar, spirotetramat 300 mg/L, isolate O43NEW 1×10^5 cfu/mL): 6%
- mortality at 300 µg/mL (fall armyworm; 168 h, read-out: % Mortality (7DAT), 3rd instar, spirotetramat 300 mg/L, isolate O43NEW 1×10^5 cfu/mL): 13%
- % Mort. Chem. (fall armyworm; Spirotetramat 300 mg/L, 6 DAT): 6%
- LT50 Chem. (fall armyworm; Spirotetramat alone 300 mg/L): 10.29 days
